Results on 16 molecules are retold here after patent EP1157985A1 (G.D. SEARLE & CO., priority 1996, dated 1997).

In assay [1] the target is T1, Human fibrinogen receptor (αIIbβ3) (Homo sapiens, UniProt P05106+P08514).
T1 construct: Human fibrinogen receptor (αIIbβ3) was purified from outdated platelets; from tissue; host or cells: outdated (human) platelets
Put plainly: Purified IIb/IIIa receptor assay (solid phase receptor assay, competition with biotinylated vitronectin). In kind it is binding. As to conditions: purified receptor from outdated platelets; 1 nM biotinylated vitronectin; highest concentration tested 1.0 x 10^-4 M. The source says:
PURIFIED IIb/IIIa RECEPTOR ASSAY
Human fibrinogen receptor (αIIbβ3) was purified from outdated platelets. (Pytela, R., Pierschbacher, M.D., Argraves, S., Suzuki, S., and Rouslahti, E. "Arginine-Glycine-Aspartic acid adhesion receptors", Methods in Enzymology 144(1987):475-489.) Human vitronectin was purified from fresh frozen plasma as described in Yatohgo, T., Izumi, M., Kashiwagi, H., and Hayashi, M., "Novel purification of vitronectin from human plasma by heparin affinity chromatography," Cell Structure and Function 13(1988):281-292. Biotinylated human vitronectin was prepared by coupling NHS-biotin from Pierce Chemical Company (Rockford, IL) to purified vitronectin as previously described. (Charo, I.F., Nannizzi, L., Phillips, D.R., Hsu, M.A., Scarborough, R.M., "Inhibition of fibrinogen binding to GP IIb/IIIa by a GP IIIa peptide", J. Biol. Chem. 266(3)(1991): 1415-1421.) Assay buffer, OPD substrate tablets, and RIA grade BSA were obtained from Sigma (St. Louis, MO). Anti-biotin antibody was obtained from Calbiochem (La Jolla, CA). Linbro microtiter plates were obtained from Flow Labs (McLean, VA). ADP reagent was obtained from Sigma (St. Louis, MO).
This assay is essentially the same reported in Niiya, K., Hodson, E., Bader, R., Byers-Ward, V. Koziol, J.A., Plow, E.F. and Ruggeri, Z.M., "Increased surface expression of the membrane glycoprotein IIb/IIIa complex induced by platelet activation: Relationships to the binding of fibrinogen and platelet aggregation", Blood 70(1987):475-483. The purified human fibrinogen receptor (αIIbβ3) was diluted from stock solutions to 1.0 µg/mL in Tris-buffered saline containing 1.0 mM Ca^++, Mg^++, and Mn^++, pH 7.4 (TBS^+++). The diluted receptor was immediately transferred to Linbro microtiter plates at 100 µL/well (100 ng receptor/well). The plates were sealed and incubated overnight at 4°C to allow the receptor to bind to the wells. All remaining steps were at room temperature. The assay plates were emptied and 200 µL of 1% RIA grade BSA in TBS^+++ (TBS^+++/BSA) were added to block exposed plastic surfaces. Following a 2 hour incubation, the assay plates were washed with TBS^+++ using a 96 well plate washer. Logarithmic serial dilution of the test compound and controls were made starting at a stock concentration of 2 mM and using 2 nM biotinylated vitronectin in TBS^+++/BSA as the diluent. This premixing of labeled ligand with test (or control) ligand, and subsequent transfer of 50 µL aliquots to the assay plate was carried out with a CETUS Propette robot; the final concentration of the labeled ligand was 1 nM and the highest concentration of test compound was 1.0 x 10^-4 M. The competition occurred for two hours after which all wells were washed with a plate washer as before. Affinity purified horseradish peroxidase labeled goat anti-biotin antibody was diluted 1:3000 in TBS^+++/BSA and 125 µL were added to each well. After 30 minutes, the plates were washed and incubated with […] substrate in 100 mM/L citrate buffer, pH 5.0. The plate was read with a microtiter plate reader at a wavelength of 450 nm and when the maximum-binding control wells reached an absorbance of about 1.0, the final A450 were recorded for analysis. The data were analyzed using a macro written for use with the EXCEL™ spreadsheet program. The mean, standard deviation, and %CV were determined for duplicate concentrations. The mean A450 values were normalized to the mean of four maximum-binding controls (no competitor added)(B-MAX). The normalized values were subjected to a four parameter curve fit algorithm, [Robard et al., Int. […]

Assay [2] has as its target T2, Human vitronectin receptor (αvβ3) (Homo sapiens, UniProt P05106+P06756).
T2 construct: Human vitronectin receptor (αvβ3) was purified from human placenta; from tissue; host or cells: human placenta
Put plainly: Vitronectin adhesion assay (solid phase receptor assay, competition with biotinylated vitronectin). In kind it is binding. The protocol: VITRONECTIN ADHESION ASSAY
Human vitronectin receptor (αvβ3) was purified from human placenta as previously described [Pytela et al., Methods in Enzymology, 144:475-489 (1987)]. Human vitronectin was purified from fresh frozen plasma as previously described [Yatohgo et al., Cell Structure and Function, 13:281-292 (1988)]. Biotinylated human vitronectin was prepared by coupling NHS-biotin from Pierce Chemical Company (Rockford, IL) to purified vitronectin as previously described [Charo et al., J. Biol. Chem., 266(3):1415-1421 (1991)]. Assay buffer, OPD substrate tablets, and RIA grade BSA were obtained from Sigma (St. Louis, MO). Anti-biotin antibody was obtained from Calbiochem (La Jolla, CA). Linbro microtiter plates were obtained from Flow Labs (McLean, VA). ADP reagent was obtained from Sigma (St. Louis, MO).
This assay was essentially the same as previously reported [Niiya et al., Blood, 70:475-483 (1987)]. The purified human vitronectin receptor (αvβ3) was diluted from stock solutions to 1.0 µg/mL in Tris-buffered saline containing 1.0 mM Ca^++, Mg^++, and Mn^++, pH 7.4 (TBS^+++). The diluted receptor was immediately transferred to Linbro microtiter plates at 100 µL/well (100 ng receptor/well). The plates were sealed and incubated overnight at 4°C to allow the receptor to bind to the wells. All remaining steps were at room temperature. The assay plates were emptied and 200 µL of 1% RIA grade BSA in TBS^+++ (TBS^+++/BSA) were added to block exposed plastic surfaces. Following a 2 hour incubation, the assay plates were washed with TBS^+++ using a 96 well plate washer. Logarithmic serial dilution of the test compound and controls were made starting at a stock concentration of 2 mM and using 2 nM biotinylated vitronectin in TBS^+++/BSA as the diluent. This premixing of labeled ligand with test (or control) ligand, and subsequent transfer of 50 µL aliquots to the assay plate was carried out with a CETUS Propette robot; the final concentration of the labeled ligand was 1 nM and the highest concentration of test compound was 1.0 x 10^-4 M. The competition occurred for two hours after which all wells were washed with a plate washer as before. Affinity purified horseradish peroxidase labeled goat anti-biotin antibody was diluted 1:3000 in TBS^+++/BSA and 125 µL were added to each well. After 30 minutes, the plates were washed and incubated with OPD/H2O2 substrate in 100 mM/L Citrate buffer, pH 5.0. The plate was read with a microtiter plate reader at a wavelength of 450 nm and when the maximum-binding control wells reached an absorbance of about 1.0, the final A450 were recorded for analysis. The data were analyzed using a macro written for use with the EXCEL™ spreadsheet program. The mean, standard deviation, and %CV were determined for duplicate concentrations. The mean A450 values were normalized to the mean of four maximum-binding controls (no competitor added)(B-MAX). The normalized values were subjected to a four parameter curve fit algorithm [Rodbard et al., Int.

Where [3] appears, read: purified receptor from human placenta; 1 nM biotinylated vitronectin; highest concentration tested 1.0 x 10^-4 M; read-out: AvB3 IC50.
Where [4] appears, read: read-out: AvB3 IC50; purified receptor from human placenta; 1 nM biotinylated vitronectin; highest concentration tested 1.0 x 10^-4 M.

Structures can show the parent of a compound that is named as a salt. Where two headings read alike, the source gives them in different places.

What is called IC50 is the point on the concentration scale where inhibition reaches its midpoint. As for `N=C(N)Nc1cccc(C(=O)Nc2ccc(CC(NC(=O)N3CCCCC3)C(=O)O)cc2)c1` (centres unmarked) [Example 126, 4-[[[3-[(aminoiminomethyl)amino]phenyl]carbonyl]-amino]-N-[(1-pipridinyl)carbonyl]phenyl-alanine, trifluoroacetate salt], the results for the IC50 in assay [1] and in assay [2] (setting [3]) were 36 nM and 2 nM, respectively.
With `N=C(N)Nc1cccc(S(=O)(=O)Nc2ccc(CCC(=O)O)cc2)c1` [Example 62, 4-[[[3-[(aminoiminomethyl)amino]phenyl]sulfonyl]amino]benzenepropanoic acid, trifluoroacetate salt], the IC50 in assay [1] came out at 14800 nM; in assay [2] (setting [3]), 28100 nM.
In the same order, the values of `N=C(N)Nc1cccc(C(=O)Nc2ccc(CC(NC(=O)c3ccccc3)C(=O)O)cc2)c1` (centres unmarked) [Example 47, trifluoroacetate salt] are 51.1 nM and 5.89 nM.
With `N=C(N)Nc1cccc(C(=O)Nc2ccc(C(CC(=O)O)c3ccccc3)cc2)c1` (stereo not drawn) [Example 33, 4-[[[3-[(aminoiminomethyl)amino]phenyl]carbonyl]amino]-β-phenylbenzenepropanoic acid, trifluoroacetate salt], the values for the half-maximal inhibitory concentration (IC50) in assay [1] and in assay [2] (setting [3]) were 7.37 nM and 73.6 nM, respectively.
In the case of `COC(=O)c1cc(NC(=O)c2cccc(NC(=N)N)c2)ccc1CCC(=O)O` [Example 101B, 4-[[[3-[(aminoiminomethyl)amino]phenyl]carbonyl]-amino]-2-methoxycarbonyl)benzenepropanoic acid, bis(trifluoroacetate) salt], the IC50 in assay [1] was determined as 286 nM; in assay [2] (setting [3]), 35 nM.
For the molecule `Cc1cc(C)c(S(=O)(=O)NC(Cc2ccc(NC(=O)c3cccc(NC(=N)N)c3)cc2)C(=O)O)c(C)c1` (centres unmarked) [Example 121, trifluoroacetate salt], the results for the IC50 in assay [1] and in assay [2] (setting [4]) were 2 nM and 1 nM, respectively.
Regarding `NC(=O)Nc1cccc(C(=O)Nc2ccc(CCC(=O)O)cc2)c1` [Example 24, 4-[[[3-[(aminocarbonyl)amino]phenyl]carbonyl]amino]benzenepropanoic acid], the IC50 came out at 4530 nM in assay [1] and 1220 nM in assay [2] (setting [3]).
Take `NC(N)=Nc1cccc(C(=O)Nc2ccc(CCC(=O)O)c(C(=O)O)c2)c1` [Example 101A, 4-[[[3-[(aminoiminomethyl)amino]phenyl]carbonyl]-amino]-2-carboxybenzenepropanoic acid, bis(trifluoroacetate) salt]: the results for the IC50 in assay [1] and in assay [2] (setting [3]) were 57 nM and 9 nM, respectively.
Taken in the same sequence, the figures for `CC(C)OC(=O)NC(Cc1ccc(NC(=O)c2cccc(NC3=NC(=O)CN3)c2)cc1)C(=O)O` (centres unmarked) [Example 77, 4-[[[3-[(4,5-dihydro-4-oxo-lH-imidazol-2-yl)amino]phenyl]carbonyl]amino]-N-[(1-methylethoxy)-carbonyl]phenylalanine] were 1260 nM and 1.6 nM.
For `CCOC(=O)C(Cc1ccc(NC(=O)c2cccc(NC(=N)N)c2)cc1)NC(C)=O` (centres unmarked) [Example 34, N-acetyl-4-[[[3-[(aminoiminomethyl)amino]phenyl)carbonyl]amino]phenylalanine ethyl ester, trifluoroacetate salt], the IC50 came to 2200 nM in assay [1] and 45.2 nM in assay [2] (setting [3]).
As for `CC(C)(C)OC(=O)CCc1ccc(CCNC(=O)c2cccc(NC(=N)N)c2)cc1` [Example 58, monohydrate trifluoroacetate salt], the values for the IC50 in assay [1] and in assay [2] (setting [4]) were 57200 nM and 48400 nM, respectively.
`O=C(Nc1ccc(C[C@H](NS(=O)(=O)c2ccccc2)C(=O)O)cc1)c1cccc(NC2=NCCCN2)c1` [Example 111, N-(phenylsulfonyl)-4-[[[3-[(1,4,5,6-tetrahydro-pyrimidin-2-yl)amino]phenyl]carbonyl]amino]-phenylalanine, trifluoroacetate salt]: the results for the IC50 in assay [1] and in assay [2] (setting [3]) were 6 nM and 0.1 nM, respectively.
Taken in the same sequence, the figures for `CCOC(=O)NC(Cc1ccc(NC(=O)c2cccc(NC(=N)N)c2)cc1)C(=O)O` (centres unmarked) [Example 49, trifluoroacetate salt] were 31.4 nM and 1.1 nM.
Regarding `CC(C)(C)OC(=O)NC(Cc1ccc(NC(=O)c2cccc(N=C(N)N)c2)cc1)C(=O)O` (centres unmarked) [Example 55, 4-[[[3-[(aminoiminomethyl)amino]phenyl]carbonyl]amino]-N-[(1,1-dimethylethoxy)carbonyl]-phenylalanine, monohydrate trifluoroacetate salt], the IC50 is 14.3 nM in assay [1] and 0.51 nM in assay [2] (setting [3]).
For `COc1cc(NC(=O)c2cccc(NC3=NCCCN3)c2)ccc1C[C@H](NC(=O)OC(C)C)C(=O)O` [Example 114, 2-methoxy-N-[(1-methylethoxy)carbonyl]-4-[[[3-[(1,4,5,6-tetrahydropyrimidin-2-yl)amino]-phenyl]-carbonyl]amino]phenylalanine, trifluoroacetate salt], the figures for the IC50 in assay [1] and in assay [2] (setting [3]) were 1000 nM and 0.2 nM, respectively.
Take `CC(C)CC(=O)N[C@@H](Cc1ccc(NC(=O)c2cc(NC3=NCCCN3)cc(C(F)(F)F)c2)cc1)C(=O)O` [Example 107, N-(3-methyl-1-oxobutyl)-4-[[[3-[(1,4,5,6-tetrahydro-pyrimidin-2-yl)amino]-5-(trifluoromethyl)phenyl]-carbonyl]amino]phenylalanine, trifluoroacetate salt]: the IC50 was 1570 nM in assay [1] and 0.5 nM in assay [2] (setting [3]).
